In patent publication US20230003720A1 (priority 2016, published 2023):

Key:
[1] = tested on: mOR18-1; type: cell-based, Mus musculus
[2] = tested on: mOR178-1; type: cell-based, mouse
[3] = target: T1, OR2W1 (Homo sapiens, UniProt Q9Y3N9); type: cell-based
T1 construct: expressed in transfected cells
T1 sequence (Q9Y3N9 1-320): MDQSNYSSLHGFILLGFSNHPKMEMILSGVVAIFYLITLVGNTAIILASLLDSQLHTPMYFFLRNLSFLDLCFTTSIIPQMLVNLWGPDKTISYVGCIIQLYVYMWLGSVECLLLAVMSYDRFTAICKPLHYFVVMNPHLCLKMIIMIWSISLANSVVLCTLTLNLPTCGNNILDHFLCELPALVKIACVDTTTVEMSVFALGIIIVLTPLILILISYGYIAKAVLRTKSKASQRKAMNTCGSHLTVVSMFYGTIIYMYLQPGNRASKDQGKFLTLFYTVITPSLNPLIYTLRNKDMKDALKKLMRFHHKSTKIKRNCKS

[4] = target: T2, mOR18-2 (Mus musculus, UniProt Q8VBV9); type: cell-based
T2 construct: expressed in transfected cells
T2 sequence (Q8VBV9 1-320): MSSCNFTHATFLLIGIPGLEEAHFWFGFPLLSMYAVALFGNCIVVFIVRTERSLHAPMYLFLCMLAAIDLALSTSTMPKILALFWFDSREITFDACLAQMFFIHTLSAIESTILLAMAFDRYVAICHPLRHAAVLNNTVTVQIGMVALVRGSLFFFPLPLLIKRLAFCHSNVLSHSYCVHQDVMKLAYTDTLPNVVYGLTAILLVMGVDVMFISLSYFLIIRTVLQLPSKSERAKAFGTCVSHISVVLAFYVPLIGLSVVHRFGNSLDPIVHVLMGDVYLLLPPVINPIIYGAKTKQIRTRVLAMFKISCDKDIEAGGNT

Measured: receptor response as measured levels of luminescence

CCN(CC)C(=O)[C@@H]1C=C2c3cccc4[nH]cc(c34)C[C@H]2N(C)C1 [LSD]
responded: all assays above

c1ccc(C2(N3CCCCC3)CCCCC2)cc1 [PCP]
responded: all assays above

CC(=O)Oc1ccc2c3c1O[C@H]1[C@@H](OC(C)=O)C=C[C@H]4[C@@H](C2)N(C)CC[C@@]341 [heroine]
responded: all assays above
